≈ marks a conversion by molar mass, not a printed value.
Columns and labels:
Format in all cases: functional
Trichophyton rubrum = experiment: Antifungal activity against Trichophyton rubrum by microbroth dilution method
Candida parapsilosis = experiment: Antifungal activity against Candida parapsilosis by microbroth dilution method; conditions: Lodderomyces parapsilosis
Aspergillus fumigatus = experiment: Antifungal activity against Aspergillus fumigatus by microbroth dilution method
Candida tropicalis [1] = experiment: Antifungal activity against Candida tropicalis by microbroth dilution method
Cryptococcus neoformans = experiment: Antifungal activity against Cryptococcus neoformans after 72 hrs by microbroth dilution method
Candida albicans [2] = experiment: Antifungal activity against Candida albicans Y0109 after 24 hrs by microbroth dilution method; conditions: Y0109, 24 h
Candida albicans [3] = experiment: Antifungal activity against Candida albicans SC5314 after 24 hrs by microbroth dilution method; conditions: SC5314, 24 h
Kluyveromyces marxianus [4] = experiment: Antifungal activity against Candida kefyr by microbroth dilution method
Candida albicans [5] = experiment: Ratio of MIC80 for fluconazole to compound for Candida albicans SC5314 after 24 hrs by microbroth dilution method
Kluyveromyces marxianus [6] = experiment: Ratio of MIC80 for fluconazole to compound for Candida kefyr by microbroth dilution method
Candida tropicalis [7] = experiment: Ratio of MIC80 for fluconazole to compound for Candida tropicalis by microbroth dilution method

Row | Structure (SMILES) | MIC80 (Trichophyton rubrum) | MIC80 (Candida parapsilosis) | MIC80 (Aspergillus fumigatus) | MIC80 (Candida tropicalis [1]) | MIC80 (Cryptococcus neoformans) | MIC80 (Candida albicans [2]) | MIC80 (Candida albicans [3]) | MIC80 (Kluyveromyces marxianus [4]) | Ratio (Candida albicans [5]) | Ratio (Kluyveromyces marxianus [6]) | Ratio (Candida tropicalis [7])
1 | O=[N+]([O-])c1ccccc1Cn1cc(CC(O)(Cn2cncn2)c2ccc(F)cc2F)nn1 (centres undefined) | 0.25 µg/mL (≈ 0.566 µM) | < 0.25 µg/mL | 32 µg/mL (≈ 72.5 µM) | 0.125 µg/mL (≈ 0.283 µM) | 0.5 µg/mL (≈ 1.13 µM) | 0.0625 µg/mL (≈ 0.142 µM) | < 0.125 µg/mL | 0.0625 µg/mL (≈ 0.142 µM) |  |  | 
2 | CCC(C)n1ncn(-c2ccc(N3CCN(c4ccc(OCC5COC(Cn6cncn6)(c6ccc(Cl)cc6Cl)O5)cc4)CC3)cc2)c1=O (centres undefined) [ITRACONAZOLE] | 0.0625 µg/mL (≈ 0.0886 µM) | 0.0625 µg/mL (≈ 0.0886 µM) | 0.0625 µg/mL (≈ 0.0886 µM) | 0.0625 µg/mL (≈ 0.0886 µM) | 0.0625 µg/mL (≈ 0.0886 µM) | 0.0625 µg/mL (≈ 0.0886 µM) | 0.0625 µg/mL (≈ 0.0886 µM) | 0.125 µg/mL (≈ 0.177 µM) |  |  | 
3 | Cc1ccc(Cn2cc(CC(O)(Cn3cncn3)c3ccc(F)cc3F)nn2)cc1 (centres undefined) | 0.0625 µg/mL (≈ 0.152 µM) | 0.0625 µg/mL (≈ 0.152 µM) | 2 µg/mL (≈ 4.87 µM) | 0.125 µg/mL (≈ 0.305 µM) | 0.125 µg/mL (≈ 0.305 µM) | 0.0039 µg/mL (≈ 0.0095 µM) | 0.0156 µg/mL (≈ 0.038 µM) | 0.0156 µg/mL (≈ 0.038 µM) | 128 | 256 | 
4 | COc1ccc(Cn2cc(CC(O)(Cn3cncn3)c3ccc(F)cc3F)nn2)cc1OC (centres undefined) | 0.0625 µg/mL (≈ 0.137 µM) | 0.0625 µg/mL (≈ 0.137 µM) | 2 µg/mL (≈ 4.38 µM) | 0.125 µg/mL (≈ 0.274 µM) | 0.0625 µg/mL (≈ 0.137 µM) | 0.0156 µg/mL (≈ 0.0342 µM) | 0.0625 µg/mL (≈ 0.137 µM) | 0.0625 µg/mL (≈ 0.137 µM) |  |  | 
5 | OC(Cc1cn(Cc2ccc(F)cc2)nn1)(Cn1cncn1)c1ccc(F)cc1F (centres undefined) | 0.125 µg/mL (≈ 0.302 µM) | 0.125 µg/mL (≈ 0.302 µM) | 32 µg/mL (≈ 77.2 µM) | 0.25 µg/mL (≈ 0.603 µM) | 0.25 µg/mL (≈ 0.603 µM) | 0.0625 µg/mL (≈ 0.151 µM) | < 0.125 µg/mL | 0.0625 µg/mL (≈ 0.151 µM) |  |  | 
6 | OC(Cc1cn(Cc2ccc(F)c(F)c2)nn1)(Cn1cncn1)c1ccc(F)cc1F (centres undefined) | 0.25 µg/mL (≈ 0.578 µM) | 0.125 µg/mL (≈ 0.289 µM) | 16 µg/mL (≈ 37 µM) | 0.125 µg/mL (≈ 0.289 µM) | 1 µg/mL (≈ 2.31 µM) | 0.125 µg/mL (≈ 0.289 µM) | 0.25 µg/mL (≈ 0.578 µM) | 0.25 µg/mL (≈ 0.578 µM) |  | 64 | 16
7 | N#Cc1ccc(Cn2cc(CC(O)(Cn3cncn3)c3ccc(F)cc3F)nn2)cc1 (centres undefined) | 0.25 µg/mL (≈ 0.593 µM) | 0.25 µg/mL (≈ 0.593 µM) | 32 µg/mL (≈ 75.9 µM) | 0.125 µg/mL (≈ 0.297 µM) | 0.5 µg/mL (≈ 1.19 µM) | 0.0625 µg/mL (≈ 0.148 µM) | 0.125 µg/mL (≈ 0.297 µM) | < 0.125 µg/mL |  |  | 
8 | OC(Cc1cn(Cc2cccc(Br)c2)nn1)(Cn1cncn1)c1ccc(F)cc1F (centres undefined) | 0.25 µg/mL (≈ 0.526 µM) | 0.125 µg/mL (≈ 0.263 µM) | 8 µg/mL (≈ 16.8 µM) | 0.25 µg/mL (≈ 0.526 µM) | 0.25 µg/mL (≈ 0.526 µM) | 0.0625 µg/mL (≈ 0.131 µM) | < 0.125 µg/mL | 0.125 µg/mL (≈ 0.263 µM) |  |  | 
9 | OC(Cc1cn(Cc2ccccc2)nn1)(Cn1cncn1)c1ccc(F)cc1F (centres undefined) | 0.25 µg/mL (≈ 0.631 µM) | 0.0625 µg/mL (≈ 0.158 µM) | 16 µg/mL (≈ 40.4 µM) | 0.0625 µg/mL (≈ 0.158 µM) | < 0.25 µg/mL | 0.0625 µg/mL (≈ 0.158 µM) | 0.125 µg/mL (≈ 0.315 µM) | < 0.125 µg/mL |  |  | 
10 | C[C@@H]1[C@H](O)[C@@H](C)/C=C/C=C/C=C/C=C/C=C/C=C/C=C/[C@H](O[C@@H]2O[C@H](C)[C@@H](O)[C@H](N)[C@@H]2O)C[C@@H]2O[C@](O)(C[C@@H](O)C[C@@H](O)[C@H](O)CC[C@@H](O)C[C@@H](O)CC(=O)O[C@H]1C)C[C@H](O)[C@H]2C(=O)O [AMPHOTERICIN B] | 4 µg/mL (≈ 4.33 µM) | 0.25 µg/mL (≈ 0.271 µM) | 1 µg/mL (≈ 1.08 µM) | 1 µg/mL (≈ 1.08 µM) | 1 µg/mL (≈ 1.08 µM) | 0.25 µg/mL (≈ 0.271 µM) | 0.25 µg/mL (≈ 0.271 µM) | 0.25 µg/mL (≈ 0.271 µM) |  |  | 
11 | OC(Cn1cncn1)(Cn1cncn1)c1ccc(F)cc1F [FLUCONAZOLE] | 1 µg/mL (≈ 3.27 µM) | 0.5 µg/mL (≈ 1.63 µM) | 64 µg/mL (≈ 209 µM) | 1 µg/mL (≈ 3.27 µM) | 1 µg/mL (≈ 3.27 µM) | 0.5 µg/mL (≈ 1.63 µM) | 0.5 µg/mL (≈ 1.63 µM) | 4 µg/mL (≈ 13.1 µM) |  |  | 
12 | OC(Cc1cn(Cc2cc(Cl)cc(Cl)c2)nn1)(Cn1cncn1)c1ccc(F)cc1F (centres undefined) | < 0.125 µg/mL | 0.25 µg/mL (≈ 0.537 µM) | 32 µg/mL (≈ 68.8 µM) | 0.25 µg/mL (≈ 0.537 µM) | 1 µg/mL (≈ 2.15 µM) | 0.125 µg/mL (≈ 0.269 µM) | 0.25 µg/mL (≈ 0.537 µM) | 0.5 µg/mL (≈ 1.07 µM) |  |  | 
13 | Cc1cccc(Cn2cc(CC(O)(Cn3cncn3)c3ccc(F)cc3F)nn2)c1 (centres undefined) | 0.0625 µg/mL (≈ 0.152 µM) | 0.0625 µg/mL (≈ 0.152 µM) | 4 µg/mL (≈ 9.75 µM) | 0.125 µg/mL (≈ 0.305 µM) | 0.125 µg/mL (≈ 0.305 µM) | 0.0156 µg/mL (≈ 0.038 µM) | 0.0625 µg/mL (≈ 0.152 µM) | 0.0156 µg/mL (≈ 0.038 µM) |  |  | 
14 | CC(=O)N1CCN(c2ccc(OCC3COC(Cn4ccnc4)(c4ccc(Cl)cc4Cl)O3)cc2)CC1 (centres undefined) [KETOCONAZOLE] | 0.0156 µg/mL (≈ 0.0294 µM) | 0.0039 µg/mL (≈ 0.00734 µM) | 0.0156 µg/mL (≈ 0.0294 µM) | 0.0039 µg/mL (≈ 0.00734 µM) | 0.0156 µg/mL (≈ 0.0294 µM) | 0.0625 µg/mL (≈ 0.118 µM) | 0.0625 µg/mL (≈ 0.118 µM) | 0.0625 µg/mL (≈ 0.118 µM) |  |  | 
15 | OC(Cc1cn(Cc2ccc(Br)cc2)nn1)(Cn1cncn1)c1ccc(F)cc1F (centres undefined) | 0.125 µg/mL (≈ 0.263 µM) | 0.125 µg/mL (≈ 0.263 µM) | 8 µg/mL (≈ 16.8 µM) | 0.25 µg/mL (≈ 0.526 µM) | 0.25 µg/mL (≈ 0.526 µM) | 0.0625 µg/mL (≈ 0.131 µM) | 0.0625 µg/mL (≈ 0.131 µM) | 0.0625 µg/mL (≈ 0.131 µM) |  |  | 

From ChEMBL document CHEMBL2016536, “New triazole derivatives as antifungal agents: synthesis via click reaction, in vitro evaluation and molecular docking studies” (2012)
